In brackets after ≈: the same amount, converted by molar mass. Where two headings read alike, the source gives them in different places.
How the values were obtained:
tPBP2^H041-K361E [1] = experiment: time-dependent gel-based assay, acylation of K361E mutant by Bocillin-FL; format: biochemical, Neisseria gonorrhoeae
tPBP2^H041 [2] = experiment: time-dependent gel-based assay, second-order acylation by Bocillin-FL; format: biochemical, Neisseria gonorrhoeae; details: time-course, pH 8.0, room temperature
N. gonorrhoeae H041 = experiment: minimum inhibitory concentration by agar dilution; format: cell-based, Neisseria gonorrhoeae
tPBP2^H041-K361E [3] = experiment: gel-based competition assay with Bocillin-FL against K361E mutant; format: biochemical, Neisseria gonorrhoeae; details: for Fractional Activity: fractional acylation rate of K361E compared to native tPBP2^H041; for K361E k2/Ks: tPBP2^H041-K361E mutant, competition with Bocillin-FL; for reduction in acylation rate against K361E mutant: K361E versus native tPBP2^H041
tPBP2^H041 [4] = experiment: gel-based competition assay with Bocillin-FL, second-order acylation rate; format: biochemical, Neisseria gonorrhoeae
[5] = tested on: N. gonorrhoeae strain H041
(non-mosaic) PBP2 = details: membrane preparations; cited from earlier work
[6] = cited from earlier work
[7] = whole molecule; cited from earlier work
H041 = details: cited from earlier work
tPBP2^H041 [8] = details: cited from earlier work
[9] = tested on: wild-type PBP2 (tPBP2^WT); details: cited from earlier work
[10] = tested on: FA19 with mosaic penA gene from H041 (penA41); details: allelic exchange; cited from earlier work
[11] = Neisseria gonorrhoeae, H041, 24 h

Cc1cc(C)n2c1C=C1C=CC(CCC(=O)Nc3ccc(OCC(=O)N[C@@H]4C(=O)N5[C@@H]4SC(C)(C)[C@@H]5C(=O)[O-])cc3)=[N+]1[B-]2(F)F.[Na+] [Bocillin-FL]
decrease in Bocillin-FL acylation rate against K361E (tPBP2^H041-K361E [1]; compared to the native enzyme): 5 fold
second-order acylation rate of Bocillin-FL against K361E (tPBP2^H041-K361E [1]; tPBP2^H041-K361E mutant, time-course): 57 ± 1 M⁻¹ s⁻¹
second-order acylation rate k2/Ks of Bocillin-FL (tPBP2^H041 [2]): 275 ± 9 M⁻¹ s⁻¹

N[C@@H](C(=O)N[C@@H]1C(=O)N2C(C(=O)O)=C(Cl)CS[C@H]12)c1ccccc1 [cefaclor]
MIC (N. gonorrhoeae H041; [11]): ≥ 32 µg/mL

C=CC1=C(C(=O)O)N2C(=O)[C@@H](NC(=O)/C(=N\O)c3csc(N)n3)[C@H]2SC1 [cefdinir]
MIC (N. gonorrhoeae H041; [11]): 2 µg/mL (≈ 5.06 µM)

CO/N=C(\C(=O)N[C@@H]1C(=O)N2C(C(=O)[O-])=C(C[N+]3(C)CCCC3)CS[C@H]12)c1csc(N)n1 [cefepime]
Fractional Activity (tPBP2^H041-K361E [3]): 0.64
K361E k2/Ks (tPBP2^H041-K361E [3]): 410 ± 130 M⁻¹ s⁻¹

CCN1CCN(C(=O)N[C@@H](C(=O)N[C@@H]2C(=O)N3C(C(=O)O)=C(CSc4nnnn4C)CS[C@H]23)c2ccc(O)cc2)C(=O)C1=O [cefoperazone]
MIC (N. gonorrhoeae H041; [11]): 1 µg/mL (≈ 1.55 µM)
acylation rate relative to ceftriaxone (faster) (tPBP2^H041 [4]): 7 fold
culture negativity ([5]; 120 mg/kg TID one day, intraperitoneal, by day 3 post-treatment, n = 9): 100%
concentration at which bound to PBP2 ((non-mosaic) PBP2): less than 10^−3 μg/mL
reduction in acylation rate against K361E mutant (tPBP2^H041-K361E [3]): 32 fold
Fractional Activity (tPBP2^H041-K361E [3]): 0.03
K361E k2/Ks (tPBP2^H041-K361E [3]): 370 ± 60 M⁻¹ s⁻¹
route of excretion [6]: primarily biliary

CO[C@@]1(NC(=O)Cc2cccs2)C(=O)N2C(C(=O)O)=C(COC(N)=O)CS[C@@H]21 [cefoxitin]
MIC (N. gonorrhoeae H041; 24 hr): 3 µg/mL (≈ 7.02 µM)
MIC (N. gonorrhoeae H041; [11]): 4 µg/mL (≈ 9.36 µM)

Cc1cc(O)c(C(=O)N[C@@H](C(=O)N[C@@H]2C(=O)N3C(C(=O)O)=C(CSc4nnnn4C)CS[C@H]23)c2ccc(O)cc2)cn1 [cefpiramide]
k2/Ks lower than cefoperazone (tPBP2^H041 [4]): 100 fold

NC(=O)c1cc[n+](CC2=C(C(=O)O)N3C(=O)[C@@H](NC(=O)[C@@H](c4ccccc4)S(=O)(=O)[O-])[C@H]3SC2)cc1 [cefsulodin]
MIC (N. gonorrhoeae H041; [11]): ≥ 32 µg/mL

CCO/N=C(\C(=O)N[C@@H]1C(=O)N2C(C(=O)[O-])=C(Sc3nc(-c4cc[n+](C)cc4)cs3)CS[C@H]12)c1nsc(N)n1 [ceftaroline]
logD7.4 [7]: 1.03

CC(C)(O/N=C(\C(=O)N[C@@H]1C(=O)N2C(C(=O)[O-])=C(C[n+]3ccccc3)CS[C@H]12)c1csc(N)n1)C(=O)O [ceftazidime]
MIC (N. gonorrhoeae H041; [11]): ≥ 32 µg/mL
Fractional Activity (tPBP2^H041-K361E [3]): 0.70
K361E k2/Ks (tPBP2^H041-K361E [3]): 560 ± 180 M⁻¹ s⁻¹

CO/N=C(\C(=O)N[C@@H]1C(=O)N2C(C(=O)O)=C(CSc3nc(=O)c(=O)[nH]n3C)CS[C@H]12)c1csc(N)n1 [ceftriaxone]
MIC (N. gonorrhoeae H041; [11]): 2 µg/mL (≈ 3.61 µM)
increase in MIC compared to strain FA19 (H041; H041 versus FA19): 3,000 fold
MIC (H041; strain H041): 2 µg/mL (≈ 3.61 µM)
k3 (deacylation rate) of acylated complex (tPBP2^H041 [8]): 8.1e-05 s⁻¹
k3 (deacylation rate) of acylated complex [9]: 2.8e-06 s⁻¹
reduction in acylation rate against K361E mutant (tPBP2^H041-K361E [3]): 6 fold
Fractional Activity (tPBP2^H041-K361E [3]): 0.17
K361E k2/Ks (tPBP2^H041-K361E [3]): 290 ± 70 M⁻¹ s⁻¹
route of excretion [6]: primarily renal
increase in MIC on replacing wild-type penA in FA19 with penA41 [10]: 570 fold

CC1=C(C(=O)O)N2C(=O)[C@@H](NC(=O)[C@H](N)c3ccccc3)[C@H]2SC1 [cephalexin]
MIC (N. gonorrhoeae H041; [11]): ≥ 32 µg/mL

CC(=O)OCC1=C(C(=O)O)N2C(=O)[C@@H](NC(=O)Cc3cccs3)[C@H]2SC1 [cephalothin]
MIC (N. gonorrhoeae H041; [11]): ≥ 32 µg/mL

CNC(C)C1CCC(N)C(OC2C(N)CC(N)C(OC3OCC(C)(O)C(NC)C3O)C2O)O1 (stereo not shown) [gentamicin]
culture negativity ([5]; 48 mg/kg once a day for 5 days (5QD), by day 4 after initiation of treatment, n = 8): 100%
mean time-to-clearance ([5]; 48 mg/kg once a day for 5 days (5QD), n = 8): 3.1 days

— PMC9847585 (ACS infectious diseases, 2021)
